The record followed here is paper PMC4076210, “Discovery of Novel AKT Inhibitors with Enhanced Anti-Tumor Effects in Combination with the MEK Inhibitor” (PLoS ONE, 2014).

Holding throughout (assay): Kinase panel
Format in all cases: biochemical

One experiment has as its target T1, EphA8(h) (Homo sapiens, UniProt P29322).
T1 construct: purchased Millipore KinaseProfiler
T1 sequence (P29322 28-1005): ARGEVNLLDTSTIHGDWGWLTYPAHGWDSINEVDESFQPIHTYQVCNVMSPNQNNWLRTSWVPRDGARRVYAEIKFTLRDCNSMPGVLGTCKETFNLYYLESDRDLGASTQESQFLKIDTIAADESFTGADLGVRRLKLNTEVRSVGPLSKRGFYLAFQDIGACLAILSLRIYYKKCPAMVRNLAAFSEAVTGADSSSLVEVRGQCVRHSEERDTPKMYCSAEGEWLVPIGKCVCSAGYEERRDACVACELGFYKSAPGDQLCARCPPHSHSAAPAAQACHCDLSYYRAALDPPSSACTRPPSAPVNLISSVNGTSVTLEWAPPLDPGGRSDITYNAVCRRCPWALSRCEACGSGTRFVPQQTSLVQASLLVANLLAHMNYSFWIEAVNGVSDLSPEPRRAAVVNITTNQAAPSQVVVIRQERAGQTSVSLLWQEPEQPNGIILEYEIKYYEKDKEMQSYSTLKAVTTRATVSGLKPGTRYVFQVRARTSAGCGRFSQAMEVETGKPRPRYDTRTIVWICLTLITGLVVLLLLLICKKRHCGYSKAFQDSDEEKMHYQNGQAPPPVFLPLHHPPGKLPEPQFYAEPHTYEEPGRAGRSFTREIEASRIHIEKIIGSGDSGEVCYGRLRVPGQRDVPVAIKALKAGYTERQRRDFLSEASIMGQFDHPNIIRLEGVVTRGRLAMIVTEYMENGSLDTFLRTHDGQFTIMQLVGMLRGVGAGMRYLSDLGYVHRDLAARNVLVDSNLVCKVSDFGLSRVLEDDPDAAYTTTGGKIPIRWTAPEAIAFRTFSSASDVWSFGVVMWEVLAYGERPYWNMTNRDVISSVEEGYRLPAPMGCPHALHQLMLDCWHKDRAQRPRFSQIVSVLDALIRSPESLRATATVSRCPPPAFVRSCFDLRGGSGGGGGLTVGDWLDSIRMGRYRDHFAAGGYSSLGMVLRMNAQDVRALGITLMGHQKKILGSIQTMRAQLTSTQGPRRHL

In the next experiment the target is T2, BrSK2(h) (Homo sapiens, UniProt Q8IWQ3).
T2 construct: purchased Millipore KinaseProfiler
T2 sequence (Q8IWQ3 1-736): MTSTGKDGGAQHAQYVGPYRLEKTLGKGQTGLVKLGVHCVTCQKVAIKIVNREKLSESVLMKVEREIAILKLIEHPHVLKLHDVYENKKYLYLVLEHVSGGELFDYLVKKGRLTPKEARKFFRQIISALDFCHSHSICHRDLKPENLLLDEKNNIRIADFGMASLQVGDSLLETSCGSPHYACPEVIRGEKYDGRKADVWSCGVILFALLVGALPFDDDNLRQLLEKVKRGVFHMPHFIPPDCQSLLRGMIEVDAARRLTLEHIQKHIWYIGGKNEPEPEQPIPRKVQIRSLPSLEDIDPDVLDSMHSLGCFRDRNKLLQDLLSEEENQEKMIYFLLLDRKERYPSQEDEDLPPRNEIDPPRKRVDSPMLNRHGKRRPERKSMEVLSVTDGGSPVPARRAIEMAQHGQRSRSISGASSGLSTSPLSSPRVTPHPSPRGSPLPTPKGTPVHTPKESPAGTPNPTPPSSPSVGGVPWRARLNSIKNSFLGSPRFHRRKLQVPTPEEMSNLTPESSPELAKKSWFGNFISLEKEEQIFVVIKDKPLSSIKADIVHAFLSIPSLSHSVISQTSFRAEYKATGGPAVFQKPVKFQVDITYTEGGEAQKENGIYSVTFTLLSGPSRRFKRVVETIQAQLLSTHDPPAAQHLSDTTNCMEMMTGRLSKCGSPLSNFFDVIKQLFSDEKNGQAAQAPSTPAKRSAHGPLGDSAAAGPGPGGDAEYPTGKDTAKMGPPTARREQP

The next experiment concerns the target T3, ALK4(h) (Homo sapiens, UniProt P36896).
T3 construct: purchased Millipore KinaseProfiler
T3 sequence (P36896 24-505): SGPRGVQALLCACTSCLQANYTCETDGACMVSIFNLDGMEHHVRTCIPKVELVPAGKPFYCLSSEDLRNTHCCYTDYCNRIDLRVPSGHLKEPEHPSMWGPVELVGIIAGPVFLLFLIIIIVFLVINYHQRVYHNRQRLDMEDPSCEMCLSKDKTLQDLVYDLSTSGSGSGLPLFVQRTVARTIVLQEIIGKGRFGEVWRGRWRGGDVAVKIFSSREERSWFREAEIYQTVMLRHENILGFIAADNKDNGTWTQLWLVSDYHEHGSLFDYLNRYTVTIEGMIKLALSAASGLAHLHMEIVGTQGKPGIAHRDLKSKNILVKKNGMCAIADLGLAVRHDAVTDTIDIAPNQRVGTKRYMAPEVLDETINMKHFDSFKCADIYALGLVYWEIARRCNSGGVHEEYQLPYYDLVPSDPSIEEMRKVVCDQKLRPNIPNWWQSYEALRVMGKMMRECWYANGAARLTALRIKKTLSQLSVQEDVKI

A further experiment has as its target T4, DMPK(h) (Homo sapiens, UniProt Q09013).
T4 construct: purchased Millipore KinaseProfiler
T4 sequence (Q09013 1-629): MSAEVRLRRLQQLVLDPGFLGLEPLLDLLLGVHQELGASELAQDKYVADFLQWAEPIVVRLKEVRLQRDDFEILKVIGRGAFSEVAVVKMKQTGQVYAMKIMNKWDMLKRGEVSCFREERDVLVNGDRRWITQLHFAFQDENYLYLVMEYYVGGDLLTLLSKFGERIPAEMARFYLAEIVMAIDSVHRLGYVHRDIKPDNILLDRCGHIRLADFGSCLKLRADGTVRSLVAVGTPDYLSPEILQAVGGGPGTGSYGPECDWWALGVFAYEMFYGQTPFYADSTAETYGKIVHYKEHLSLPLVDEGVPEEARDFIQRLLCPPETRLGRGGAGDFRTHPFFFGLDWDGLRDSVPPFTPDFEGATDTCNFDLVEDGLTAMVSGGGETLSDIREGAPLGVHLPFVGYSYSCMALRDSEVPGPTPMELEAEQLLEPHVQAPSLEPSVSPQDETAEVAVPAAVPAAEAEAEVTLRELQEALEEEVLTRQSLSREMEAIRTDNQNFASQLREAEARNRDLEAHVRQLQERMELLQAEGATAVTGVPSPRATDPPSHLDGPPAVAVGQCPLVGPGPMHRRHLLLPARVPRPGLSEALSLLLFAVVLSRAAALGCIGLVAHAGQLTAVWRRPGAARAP

Another experiment has as its target T5, PAR-1Bα(h) (Homo sapiens, UniProt Q7KZI7).
T5 construct: purchased Millipore KinaseProfiler

Molecules are shown by their SMILES. Where two headings read alike, the source gives them in different places.

T5 sequence (Q7KZI7 1-725 isoform Q7KZI7-4): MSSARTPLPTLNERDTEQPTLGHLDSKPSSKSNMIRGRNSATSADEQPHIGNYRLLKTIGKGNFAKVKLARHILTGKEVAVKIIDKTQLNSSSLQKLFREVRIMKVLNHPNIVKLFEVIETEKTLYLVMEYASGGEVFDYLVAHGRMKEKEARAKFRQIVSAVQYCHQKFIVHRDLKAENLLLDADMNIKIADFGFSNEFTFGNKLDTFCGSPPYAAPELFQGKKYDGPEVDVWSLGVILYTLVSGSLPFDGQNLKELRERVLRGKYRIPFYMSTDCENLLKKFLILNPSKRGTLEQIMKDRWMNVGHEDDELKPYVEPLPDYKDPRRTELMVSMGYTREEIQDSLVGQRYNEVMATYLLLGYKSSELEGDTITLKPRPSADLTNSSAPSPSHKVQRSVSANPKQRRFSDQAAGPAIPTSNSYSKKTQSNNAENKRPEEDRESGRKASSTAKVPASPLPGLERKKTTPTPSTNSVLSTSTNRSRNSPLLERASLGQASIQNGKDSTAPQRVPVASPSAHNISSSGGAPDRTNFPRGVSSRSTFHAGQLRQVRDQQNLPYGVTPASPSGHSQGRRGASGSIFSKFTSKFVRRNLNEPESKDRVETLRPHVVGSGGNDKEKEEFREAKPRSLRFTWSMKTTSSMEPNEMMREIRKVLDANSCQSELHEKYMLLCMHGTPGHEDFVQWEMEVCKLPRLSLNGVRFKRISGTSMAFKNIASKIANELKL

Usually inhibition stands for the drop in the measured response relative to a control, in per cent. As to `Cn1ncc(Cl)c1-c1cc(C(=O)N[C@H](CN)Cc2ccc(F)c(F)c2)oc1Cl` [GSK2141795], the inhibition at 0.5 µM on EphA8(h) (0.5 µM, read-out: % Inhibition) was -4%; at BrSK2(h) (0.5 µM, read-out: % Inhibition) it was 2%; at ALK4(h) (0.5 µM, read-out: % Inhibition), -8%; at DMPK(h) (0.5 µM, read-out: % Inhibition), -12%; on PAR-1Bα(h) (0.5 µM, read-out: % Inhibition) it was 24%. In addition, the inhibition at 10 µM at EphA8(h) (10 µM, read-out: % Inhibition) was 25%; at BrSK2(h) (10 µM, read-out: % Inhibition) it was 27%; on ALK4(h) (10 µM, read-out: % Inhibition), -18%; at DMPK(h) (10 µM, read-out: % Inhibition) it was -5%; at PAR-1Bα(h) (10 µM, read-out: % Inhibition), 83%.
Take `Cn1ncc(Cl)c1-c1cc(C(=O)N[C@H](CN)Cc2cccc(F)c2)sc1Cl` [GSK2110183]: the inhibition at 0.5 µM is -19% against EphA8(h); -2% against BrSK2(h); 3% on ALK4(h); -8% against DMPK(h); 15% against PAR-1Bα(h). In addition, the inhibition at 10 µM at EphA8(h) was -7%; against BrSK2(h), 17%; against ALK4(h), 0%; against DMPK(h), 1%; against PAR-1Bα(h), 84%.
